# Assays:
# Foxo3 = test: Western blot of Foxo3 / pFoxo3T32 in AML-12 cells; type: cell-based, mouse; details: individual compound, 150 ppb, serum-containing media, 6 hours and 24 hours
# Experimental: (§1) For the studies of protein expression, AML-12 cells were amplified in ITS, Dex and FBS-containing DMEM/F12 media, and cultured on 6-well (3.33×10^5 cells/well) plates in 10% FBS ITS-free DMEM/F12 media with or without Dex overnight. These cells were treated with control (water) or various compounds in either serum containing (10% FBS ITS-free DMEM/F12 media supplemented with Dex) or serum-free (ITS/Dex-free DMEM/F12 media) for 6 hours and 24 hours. In addition, human neuroblast IMR-32 cells were cultured in 10% FBS EMEM media and then treated with control (water), selenium compounds and their sulfur analogs in the same serum-containing media for 6 hours and 24 hours.
# (§2) AML-12 liver cells or IMR-32 neuronal cells were seeded on 6-well plates, and then treated with vehicle and various compounds for 6 hours and 24 hours, as described herein. […] Protein levels in the supernatant of these cell lysates were determined using the Pierce Micro-BCA protein assay kit (Thermo Scientific-Piece Biotechnology, Rockford, Ill.) according to the manufacturer's protocol. […]
# (§3) All primary antibodies except Actb (Li-COR, Lincoln, Nebr.), Elf2bε and pElf2bε (Abcam, Cambridge, Mass.) were purchased from Cell Signaling Inc. Positive signals on the membrane blots were detected using the Amersham's enhanced chemiluminescence Western Blotting Prime Detection reagents (GE healthcare Lifescience, Pittsburgh, Pa.). Images of luminescence signals on the membrane blots were captured using the LI-COR Odyssey Fc Image system (Lincoln, Nebr.). […] Protein band densities in the Western blots were determined using the Li-COR Image studio software or NIH ImageJ software and then normalized by Actb level in each sample. […]
# (§4) To determine if the combination of Compounds CDE can regulate FOXO phosphorylation in the liver, AML-12 cells were treated with control, and 150 ppb of selenium Compounds CDE, and their sulfur analogs, 150 ppb of Compounds HIJ, in serum- and Dex-containing media but without ITS for 6 hours. […] Quantitative data of protein expression in Western blots are presented as mean±SEM of 3 samples. […]
# Foxo4 = test: Western blot of Foxo4 / pFoxo4T28 in AML-12 cells; type: cell-based, mouse; details: individual compound, 150 ppb, serum-containing media, 6 hours and 24 hours
# Experimental: as §1, §2, §3, §4
SMILES,pFoxo3T32 protein levels (Foxo3),pFoxo4T28 protein levels (Foxo4)
"C[Se]C[C@H]1O[C@@H](n2cnc3c(N)ncnc32)C(O)C1O (stereo in doubt) [Compound C, 5′-Methylselenoadenosine]",No change,No change
"Nc1ncnc2c1ncn2[C@@H]1O[C@H](C[Se]CC[C@@H](N)C(=O)O)C(O)C1O (stereo partly drawn) [Compound D, 5′-Selenoadenosyl homocysteine]",No change,No change
"C[Se]C[C@H](NC(=O)CC[C@H](N)C(=O)O)C(=O)O [Compound E, γ-L-glutamyl-Se-methyl-L-selenocysteine]",No change,No change

# Source: patent US9642874B2, “Compositions of selenoorganic compounds and methods of use thereof” (Alltech, Inc., priority 2014, dated 2017)
